Results reported in patent US11643421B2, “Process for the preparation of tricyclic PI3K inhibitor compounds and methods for using the same for the treatment of cancer” (priority 2015, dated 2023).

Experiments:
[1] = Hepatocyte stability, predicted hepatic clearance; assay type: in vitro ADME, cynomolgus monkeys; conditions: Cyno hepatocytes, in vitro t1/2 method
Protocol: The hepatocyte stability of compound IIIat was evaluated across preclinical species. Certain in vivo pharmacokinetic parameters were also evaluated. […] Male Sprague-Dawley rats, female CD-1 mice, male cynomolgus monkeys and beagle dogs were dosed intravenously with 1 mg/kg of compound IIIat prepared in 60% PEG400/10% Ethanol. Compound IIIat was administered orally (PO) at the indicated dose in 0.5% methylcellulose with 0.2% Tween 80 (MCT).

high-grade gliomas = assay: Phase I study, best overall response (RANO); assay type: in vivo, human; conditions: evaluable patients
Protocol: Tumor response was determined by either an assessment of FDG-PET or by Response Assessment in Neuro-Oncology (RANO).
Tumor response under the RANO guidelines was done generally in accordance with the Wen method (Wen P Y, Macdonald D R, Reardon D A, et al. “Updated response assessment criteria for high-grade gliomas: Response Assessment in Neuro-Oncology Working Group”, J Clin Oncol 2010; 28:1963-72) where the disease is categorized as “complete response”, “partial response”, “stable disease” and “progression”. Among other factors, a complete response required all of the following: complete disappearance of all enhancing measurable and non-measurable disease sustained for at least 4 weeks; no new lesions; and stable or improved non-enhancing (T2/FLAIR) lesions. A partial response required, among other factors, ≥50% decrease, compared with baseline, in the sum of the products of the perpendicular diameters of all measurable enhancing lesions (such as measured by MRI) sustained for at least 4 weeks; no progression of non-measurable disease; and no new lesions.

human P-gp (MDR1) = target: T1, human P-gp (MDR1) (Homo sapiens, UniProt P08183); assay: Transport assay in MDR1-MDCKI cell monolayers; assay type: in vitro ADME; conditions: MDCK-MDR1, 2-hour incubation
T1 construct: host or cells: MDR1-MDCKI (canine kidney)
T1 sequence (P08183 whole entry): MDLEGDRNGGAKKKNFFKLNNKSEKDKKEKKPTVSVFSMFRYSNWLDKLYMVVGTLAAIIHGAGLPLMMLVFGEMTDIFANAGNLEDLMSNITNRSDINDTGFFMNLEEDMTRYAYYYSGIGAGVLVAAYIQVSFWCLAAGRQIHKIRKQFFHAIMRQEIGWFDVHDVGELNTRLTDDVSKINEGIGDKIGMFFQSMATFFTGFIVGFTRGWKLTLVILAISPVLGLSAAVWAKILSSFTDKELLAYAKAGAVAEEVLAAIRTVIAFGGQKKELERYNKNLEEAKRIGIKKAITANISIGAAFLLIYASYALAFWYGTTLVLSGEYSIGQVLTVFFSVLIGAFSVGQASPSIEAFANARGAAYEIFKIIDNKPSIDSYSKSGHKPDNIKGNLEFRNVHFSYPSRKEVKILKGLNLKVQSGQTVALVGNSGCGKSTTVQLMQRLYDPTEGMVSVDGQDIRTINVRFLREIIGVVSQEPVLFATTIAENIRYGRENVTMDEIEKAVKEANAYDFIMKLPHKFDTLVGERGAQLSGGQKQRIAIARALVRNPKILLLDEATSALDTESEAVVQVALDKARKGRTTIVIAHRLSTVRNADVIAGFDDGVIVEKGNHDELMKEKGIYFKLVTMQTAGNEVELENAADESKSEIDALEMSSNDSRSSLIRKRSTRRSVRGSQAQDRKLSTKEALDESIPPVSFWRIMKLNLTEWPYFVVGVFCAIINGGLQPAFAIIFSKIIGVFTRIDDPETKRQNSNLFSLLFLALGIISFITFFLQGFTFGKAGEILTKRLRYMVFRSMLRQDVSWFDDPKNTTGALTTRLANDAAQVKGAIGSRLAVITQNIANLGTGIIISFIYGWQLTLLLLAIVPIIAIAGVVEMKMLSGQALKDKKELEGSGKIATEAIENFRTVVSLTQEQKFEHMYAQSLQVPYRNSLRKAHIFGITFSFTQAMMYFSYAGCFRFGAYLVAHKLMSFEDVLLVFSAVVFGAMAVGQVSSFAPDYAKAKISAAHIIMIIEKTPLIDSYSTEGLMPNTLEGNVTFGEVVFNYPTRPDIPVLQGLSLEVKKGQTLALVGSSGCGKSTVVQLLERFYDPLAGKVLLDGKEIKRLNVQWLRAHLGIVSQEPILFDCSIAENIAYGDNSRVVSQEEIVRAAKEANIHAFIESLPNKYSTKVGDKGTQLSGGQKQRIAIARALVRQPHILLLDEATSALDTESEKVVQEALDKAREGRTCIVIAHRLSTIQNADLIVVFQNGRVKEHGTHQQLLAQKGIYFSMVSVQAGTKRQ
Protocol: (§1) MDR1-MDCKI cells were licensed from the NCI (National Cancer Institute, Bethesda, Md.) and Bcrp1-MDCKII, BCRP-MDCKII and Mdr1a-LLC-PK1 cells were obtained from the Netherlands Cancer Institute (Amsterdam. The Netherlands). […] The compound was dissolved in transport buffer consisting of Hank's balanced salt solution (HBSS) with 10 mM HEPES (Invitrogen Corporation, Grand Island, N.Y.). Lucifer Yellow (Sigma-Aldrich, St. Louis, Mo.) was used as the paracellular and monolayer integrity marker. […] The efflux ratio (ER) was calculated (Papp, B-A/Papp, A-B).

mouse Bcrp1 = target: T2, mouse Bcrp1 (Mus musculus, UniProt Q7TMS5); assay: Transport assay in Bcrp1-MDCKII cell monolayers; assay type: in vitro ADME; conditions: 2-hour incubation
T2 construct: host or cells: Bcrp1-MDCKII (canine kidney)
Protocol: as §1

P-gp and BCRP = assay: Transport assays in cell monolayers, overall; assay type: in vitro ADME
Protocol: as §1

[2] = Brain binding, dialysis of brain homogenate; assay type: in vitro ADME; conditions: mouse brain homogenate, n=3, read-out: free fraction in brain tissues
Protocol: Following dialysis, tissues and buffer samples were analyzed as described for the plasma protein binding studies.

TAO1 = assay: Kinase panel; assay type: biochemical; conditions: TAO1, 1 μM
Abl = Abl (Homo sapiens, UniProt P00519); assay: biochemical; conditions: read-out: % inhib
Axl = Axl (Homo sapiens, UniProt P30530); assay: biochemical; conditions: read-out: % inhib
CLK1 = CLK1 (Homo sapiens, UniProt P49759); assay: biochemical; conditions: read-out: % inhib
CLK1, sequence (P49759 whole entry): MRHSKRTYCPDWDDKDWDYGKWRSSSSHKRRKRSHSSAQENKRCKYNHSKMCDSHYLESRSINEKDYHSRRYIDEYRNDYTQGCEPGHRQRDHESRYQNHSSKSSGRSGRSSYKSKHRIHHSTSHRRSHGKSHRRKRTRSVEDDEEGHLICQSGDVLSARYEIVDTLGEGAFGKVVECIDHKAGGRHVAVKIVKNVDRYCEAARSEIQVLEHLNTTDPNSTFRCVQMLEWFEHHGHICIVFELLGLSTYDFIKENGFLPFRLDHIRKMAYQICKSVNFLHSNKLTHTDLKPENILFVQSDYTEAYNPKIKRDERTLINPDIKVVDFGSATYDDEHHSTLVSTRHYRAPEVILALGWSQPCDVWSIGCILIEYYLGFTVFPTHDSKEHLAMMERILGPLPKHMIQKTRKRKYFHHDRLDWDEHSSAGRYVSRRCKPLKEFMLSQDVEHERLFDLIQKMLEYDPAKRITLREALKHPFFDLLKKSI

CSK = CSK (Homo sapiens, UniProt P41240); assay: biochemical; conditions: read-out: % inhib
CSK, sequence (P41240 whole entry, species assumed): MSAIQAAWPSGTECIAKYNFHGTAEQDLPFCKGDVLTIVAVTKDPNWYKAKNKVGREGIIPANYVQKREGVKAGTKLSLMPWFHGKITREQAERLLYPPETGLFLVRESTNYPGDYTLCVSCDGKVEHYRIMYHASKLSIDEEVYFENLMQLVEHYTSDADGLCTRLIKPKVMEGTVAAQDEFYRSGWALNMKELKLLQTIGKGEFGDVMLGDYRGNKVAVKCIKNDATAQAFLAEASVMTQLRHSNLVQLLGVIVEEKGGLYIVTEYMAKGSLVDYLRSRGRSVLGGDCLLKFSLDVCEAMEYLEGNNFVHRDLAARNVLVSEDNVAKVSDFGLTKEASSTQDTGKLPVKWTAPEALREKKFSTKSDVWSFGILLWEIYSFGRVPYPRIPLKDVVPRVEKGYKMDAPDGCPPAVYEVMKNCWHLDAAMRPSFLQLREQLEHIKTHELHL

CaMKII_beta = CaMKII_beta (Homo sapiens, UniProt Q13554); assay: biochemical; conditions: read-out: % inhib
CamKIV = CamKIV (Homo sapiens, UniProt Q16566); assay: biochemical; conditions: read-out: % inhib
EphA4 = EphA4 (Homo sapiens, UniProt P54764); assay: biochemical; conditions: read-out: % inhib
EphB3 = EphB3 (Homo sapiens, UniProt P54753); assay: biochemical; conditions: read-out: % inhib
EphB3, sequence (P54753 34-998): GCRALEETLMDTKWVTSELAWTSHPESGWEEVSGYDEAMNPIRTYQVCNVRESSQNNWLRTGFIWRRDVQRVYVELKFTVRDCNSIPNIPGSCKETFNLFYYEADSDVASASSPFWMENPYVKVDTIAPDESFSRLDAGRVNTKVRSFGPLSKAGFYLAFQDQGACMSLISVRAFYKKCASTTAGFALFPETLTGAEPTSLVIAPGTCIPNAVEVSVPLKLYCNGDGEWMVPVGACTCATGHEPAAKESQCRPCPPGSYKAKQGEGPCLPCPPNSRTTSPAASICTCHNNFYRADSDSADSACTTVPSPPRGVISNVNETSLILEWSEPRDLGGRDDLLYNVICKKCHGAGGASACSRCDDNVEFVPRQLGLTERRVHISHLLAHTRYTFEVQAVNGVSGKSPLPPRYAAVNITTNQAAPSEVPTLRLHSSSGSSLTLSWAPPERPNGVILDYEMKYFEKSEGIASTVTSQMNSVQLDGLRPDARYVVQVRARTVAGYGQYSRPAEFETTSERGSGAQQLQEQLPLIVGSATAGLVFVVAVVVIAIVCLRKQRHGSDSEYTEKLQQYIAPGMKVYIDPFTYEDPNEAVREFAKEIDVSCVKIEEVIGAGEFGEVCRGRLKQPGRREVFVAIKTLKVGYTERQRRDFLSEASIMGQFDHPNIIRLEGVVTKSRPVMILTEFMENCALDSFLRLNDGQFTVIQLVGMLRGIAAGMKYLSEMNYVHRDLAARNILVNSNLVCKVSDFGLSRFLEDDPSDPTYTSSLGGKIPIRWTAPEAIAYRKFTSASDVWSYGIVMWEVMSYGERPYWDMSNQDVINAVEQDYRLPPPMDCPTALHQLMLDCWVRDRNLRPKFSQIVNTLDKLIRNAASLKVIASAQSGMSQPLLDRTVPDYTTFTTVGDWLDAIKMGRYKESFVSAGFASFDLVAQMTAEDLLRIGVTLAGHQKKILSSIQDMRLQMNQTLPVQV

GCK = GCK (Homo sapiens, UniProt Q12851); assay: biochemical; conditions: read-out: % inhib
GSK3_beta = GSK3_beta (Homo sapiens, UniProt P49841); assay: biochemical; conditions: read-out: % inhib
PAK1 = PAK1 (Homo sapiens, UniProt Q13153); assay: biochemical; conditions: read-out: % inhib
PAK1, sequence (Q13153 whole entry): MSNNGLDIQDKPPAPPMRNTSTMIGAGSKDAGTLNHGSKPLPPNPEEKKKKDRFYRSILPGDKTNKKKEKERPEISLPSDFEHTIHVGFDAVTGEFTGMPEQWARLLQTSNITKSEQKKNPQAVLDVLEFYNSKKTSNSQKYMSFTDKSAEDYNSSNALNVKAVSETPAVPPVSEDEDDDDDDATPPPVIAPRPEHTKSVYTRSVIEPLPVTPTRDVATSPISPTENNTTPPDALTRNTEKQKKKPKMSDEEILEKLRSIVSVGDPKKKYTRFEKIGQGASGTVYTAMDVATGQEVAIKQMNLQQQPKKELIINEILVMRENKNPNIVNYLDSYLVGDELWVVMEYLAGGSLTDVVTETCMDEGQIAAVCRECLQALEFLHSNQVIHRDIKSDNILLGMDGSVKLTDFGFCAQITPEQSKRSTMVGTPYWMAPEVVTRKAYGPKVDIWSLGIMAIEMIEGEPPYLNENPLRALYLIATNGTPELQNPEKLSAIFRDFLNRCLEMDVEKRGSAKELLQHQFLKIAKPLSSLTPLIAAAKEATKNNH

PKC_eta = PKC_eta (Homo sapiens, UniProt P24723); assay: biochemical; conditions: read-out: % inhib
Ron = Ron (Homo sapiens, UniProt Q04912); assay: biochemical; conditions: read-out: % inhib
Ron, sequence (Q04912 25-1400, species assumed): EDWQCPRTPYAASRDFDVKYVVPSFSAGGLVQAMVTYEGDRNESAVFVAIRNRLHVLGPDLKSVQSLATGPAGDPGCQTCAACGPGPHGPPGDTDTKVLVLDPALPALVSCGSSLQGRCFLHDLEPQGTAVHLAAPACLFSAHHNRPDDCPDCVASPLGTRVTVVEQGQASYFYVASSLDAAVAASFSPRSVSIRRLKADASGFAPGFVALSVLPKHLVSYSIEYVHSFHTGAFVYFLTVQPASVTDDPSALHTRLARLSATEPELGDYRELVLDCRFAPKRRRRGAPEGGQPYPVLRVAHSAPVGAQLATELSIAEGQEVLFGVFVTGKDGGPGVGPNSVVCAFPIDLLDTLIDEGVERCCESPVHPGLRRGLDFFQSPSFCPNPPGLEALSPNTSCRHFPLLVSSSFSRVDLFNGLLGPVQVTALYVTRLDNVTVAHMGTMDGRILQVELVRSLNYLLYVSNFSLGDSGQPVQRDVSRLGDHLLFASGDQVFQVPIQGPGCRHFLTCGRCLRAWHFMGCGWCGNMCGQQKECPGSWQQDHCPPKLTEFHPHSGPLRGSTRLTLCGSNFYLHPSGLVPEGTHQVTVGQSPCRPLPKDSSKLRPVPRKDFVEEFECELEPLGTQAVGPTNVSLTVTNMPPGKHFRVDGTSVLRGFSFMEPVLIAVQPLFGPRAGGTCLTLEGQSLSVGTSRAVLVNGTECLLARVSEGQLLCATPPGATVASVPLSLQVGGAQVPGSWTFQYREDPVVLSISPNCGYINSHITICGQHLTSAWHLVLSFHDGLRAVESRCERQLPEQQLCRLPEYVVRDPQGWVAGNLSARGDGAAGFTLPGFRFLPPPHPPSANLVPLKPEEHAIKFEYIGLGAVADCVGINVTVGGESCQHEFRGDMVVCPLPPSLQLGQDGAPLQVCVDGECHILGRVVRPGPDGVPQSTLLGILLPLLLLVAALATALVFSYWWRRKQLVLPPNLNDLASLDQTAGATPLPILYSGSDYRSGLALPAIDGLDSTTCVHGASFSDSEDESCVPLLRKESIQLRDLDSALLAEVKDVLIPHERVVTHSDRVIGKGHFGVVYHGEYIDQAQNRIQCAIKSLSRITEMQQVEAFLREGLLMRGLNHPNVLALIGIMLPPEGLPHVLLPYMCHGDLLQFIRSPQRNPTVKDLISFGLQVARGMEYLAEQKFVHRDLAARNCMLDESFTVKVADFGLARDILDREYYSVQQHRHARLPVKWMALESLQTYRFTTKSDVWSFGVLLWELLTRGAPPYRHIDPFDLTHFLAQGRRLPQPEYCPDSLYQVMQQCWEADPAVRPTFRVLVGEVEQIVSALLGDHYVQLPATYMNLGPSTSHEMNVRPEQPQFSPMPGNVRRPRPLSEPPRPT

pAKT = assay: PI3K pathway modulation in GS2 tumors, western blot; conditions: 15 mg/kg PO daily 4 weeks
Protocol: Each brain was dissected to separate the tumor from the healthy tissues. […] The GS2 tumors isolated from the brains were processed and the PI3K pathway markers pAkt, pS6 and p4EBP1 were measured as described previously.

## CC1(C)OCCn2c1nc1c(N3CCOCC3)nc(-c3cnc(N)nc3)nc12 [GDC-0084, 5-(6,6-dimethyl-4-morpholino-8,9-dihydro-6H-[1,4]oxazino[3,4-e]purin-2-yl)pyrimidin-2-amine]
[1]
  Clhep: 26 mL/min/kg
high-grade gliomas
  best overall response of progressive disease, patients: 26 patients
  best overall response of progressive disease, percent: 55.3%
  best overall response stable disease, patients: 19 patients
  best overall response stable disease, percent: 40.4%
Human P-gp (MDR1)
  Papp A→B at 2 h, 5 μM: 13.5 ± 0.9 ×10⁻⁶ cm/s
Mouse Bcrp1
  Papp A→B at 2 h, 5 μM: 17.6 ± 2.1 ×10⁻⁶ cm/s
P-gp and BCRP; efflux ratios in MDCK or LLC-PK1 transfected cells
  substrate of efflux transporters: poor substrate of the efflux transporters P-gp and BCRP
P-gp and BCRP; transfected MDCK and LLC-PK1 cells
  apparent permeability (Papp), in words: high and comparable to that of metoprolol
[2]
  fraction unbound at 4 h, 5 µM: 0.067
TAO1
  % inhib: −1.3%
Abl
  inhibition at 1 µM: 2%
Axl
  inhibition at 1 µM: 6%
CLK1
  inhibition at 1 µM: 4%
CSK
  inhibition at 1 µM: 10%
CaMKII_beta
  inhibition at 1 µM: 0.2%
CamKIV
  inhibition at 1 µM: 0.2%
EphA4
  inhibition at 1 µM: 3%
EphB3
  inhibition at 1 µM: -0.1%
GCK
  inhibition at 1 µM: 0.9%
GSK3_beta
  inhibition at 1 µM: 1%
PAK1
  inhibition at 1 µM: 7%
PKC_eta
  inhibition at 1 µM: -9%
Ron
  inhibition at 1 µM: 8%
pAKT; 2 hours after final administration
  reduction of pAkt levels in GS2 tumors: 90%
pAKT; 8 hours after final administration
  reduction of pAkt levels in GS2 tumors: 70%
